Square brackets hold non-standard residues; d marks the D form. Peptide text beside a SMILES is read from it. pGlu = O=C1CC[C@@H](C(=O)O)N1
Experiments:
[1] = target: T1, Corticotropin-releasing factor receptor 1 (Mus musculus) (UniProt P35347); assay: In vitro agonistic activity against mouse corticotropin releasing factor 1 receptor; format: functional
T1 sequence (whole entry): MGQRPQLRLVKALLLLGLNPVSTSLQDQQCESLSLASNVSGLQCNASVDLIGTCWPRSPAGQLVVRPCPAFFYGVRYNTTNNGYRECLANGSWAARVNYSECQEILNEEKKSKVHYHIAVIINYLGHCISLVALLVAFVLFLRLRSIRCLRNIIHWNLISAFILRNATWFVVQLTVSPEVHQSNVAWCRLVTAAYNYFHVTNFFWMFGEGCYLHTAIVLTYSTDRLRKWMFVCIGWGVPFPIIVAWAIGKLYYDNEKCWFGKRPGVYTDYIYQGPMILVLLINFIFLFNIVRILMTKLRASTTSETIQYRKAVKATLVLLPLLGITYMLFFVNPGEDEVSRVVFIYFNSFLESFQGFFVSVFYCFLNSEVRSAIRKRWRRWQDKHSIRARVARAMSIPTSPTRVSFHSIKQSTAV

Mus musculus = species: Mus musculus; assay: Selectivity ratio of EC50s for mouse corticotropin releasing factor receptors 1 and 2
[2] = target: Corticotropin-releasing factor receptor 2 (Mus musculus) (UniProt Q60748); assay: In vitro agonistic activity against mouse corticotropin releasing factor 2 receptor; format: functional
Corticotropin-releasing factor receptor 2 (Mus musculus), sequence (Q60748 whole entry): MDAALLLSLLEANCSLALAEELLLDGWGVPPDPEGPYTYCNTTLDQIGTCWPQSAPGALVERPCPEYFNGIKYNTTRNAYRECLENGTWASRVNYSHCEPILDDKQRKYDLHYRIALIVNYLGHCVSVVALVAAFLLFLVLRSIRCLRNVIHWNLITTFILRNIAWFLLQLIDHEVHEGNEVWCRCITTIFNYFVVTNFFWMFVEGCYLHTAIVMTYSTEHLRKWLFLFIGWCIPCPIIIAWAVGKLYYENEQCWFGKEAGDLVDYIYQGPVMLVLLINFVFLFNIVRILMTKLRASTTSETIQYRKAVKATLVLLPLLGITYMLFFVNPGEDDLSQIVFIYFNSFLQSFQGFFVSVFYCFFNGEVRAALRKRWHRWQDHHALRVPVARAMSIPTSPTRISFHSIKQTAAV

CC[C@H](C)[C@H](NC(=O)[C@@H](NC(=O)[C@H](CC(=O)O)NC(=O)[C@H](CC(C)C)NC(=O)[C@H](CC(C)C)NC(=O)[C@H](CC(C)C)NC(=O)[C@H](CCCN=C(N)N)NC(=O)[C@H](CC(N)=O)NC(=O)[C@H](CC(N)=O)NC(=O)[C@H](C)NC(=O)[C@H](C)NC(=O)[C@H](CCC(N)=O)NC(=O)[C@H](CCC(N)=O)NC(=O)[C@H](CCCCN)NC(=O)[C@H](CCC(=O)O)NC(=O)[C@H](CCCCN)NC(=O)[C@H](CCC(=O)O)NC(=O)[C@H](CCC(N)=O)NC(=O)[C@H](CCCCN)NC(=O)[C@H](CCC(=O)O)NC(=O)[C@@H](NC(=O)[C@H](CCC(=O)O)NC(=O)[C@@H](NC(=O)[C@H](CCSC)NC(=O)[C@H](CCCCN)NC(=O)[C@H](CCCN=C(N)N)NC(=O)[C@H](CC(C)C)NC(=O)[C@H](CC(C)C)NC(=O)[C@H](CCC(N)=O)NC(=O)[C@H](Cc1ccc(O)cc1)NC(=O)[C@@H]1CCCN1C(=O)[C@H](CC(C)C)NC(=O)[C@H](CC(=O)O)NC(=O)[C@@H](NC(=O)[C@H](CO)NC(=O)[C@@H](NC(=O)[C@@H]1CCCN1C(=O)[C@@H]1CCCN1C(=O)CNC(=O)[C@@H]1CCC(=O)N1)[C@@H](C)CC)[C@@H](C)CC)[C@@H](C)CC)[C@@H](C)CC)[C@@H](C)O)C(=O)O
Emax [1]: 100% | Selectivity (Mus musculus): 47 | Emax [2]: 99%

CC[C@H](C)[C@H](NC(=O)[C@@H](NC(=O)[C@H](CC(=O)O)NC(=O)[C@H](CC(C)C)NC(=O)[C@H](CC(C)C)NC(=O)[C@H](CC(C)C)NC(=O)[C@H](CCCN=C(N)N)NC(=O)[C@H](CC(N)=O)NC(=O)[C@H](CC(N)=O)NC(=O)[C@H](C)NC(=O)[C@H](C)NC(=O)[C@H](CCC(N)=O)NC(=O)[C@H](CCC(N)=O)NC(=O)[C@H](CCCCN)NC(=O)[C@H](CCC(=O)O)NC(=O)[C@H](CCCCN)NC(=O)[C@H](CCC(=O)O)NC(=O)[C@H](CCC(N)=O)NC(=O)[C@H](CCCCN)NC(=O)[C@H](CCC(=O)O)NC(=O)[C@@H](NC(=O)[C@H](CCC(=O)O)NC(=O)[C@@H](NC(=O)[C@H](CCSC)NC(=O)[C@H](CCCCN)NC(=O)[C@H](CCCN=C(N)N)NC(=O)[C@H](CC(C)C)NC(=O)[C@H](CC(C)C)NC(=O)[C@H](CC(C)C)NC(=O)[C@H](CC(C)C)NC(=O)[C@@H]1CCCN1C(=O)[C@H](CC(C)C)NC(=O)[C@H](CC(=O)O)NC(=O)[C@@H](NC(=O)[C@H](CO)NC(=O)[C@@H](NC(=O)[C@@H]1CCCN1C(=O)[C@@H]1CCCN1C(=O)CNC(=O)[C@@H]1CCC(=O)N1)[C@@H](C)CC)[C@@H](C)CC)[C@@H](C)CC)[C@@H](C)CC)[C@@H](C)O)C(=O)O
Emax [1]: 96% | Selectivity (Mus musculus): 22 | Emax [2]: 100%

CC[C@H](C)[C@H](NC(=O)[C@@H](NC(=O)[C@H](CC(=O)O)NC(=O)[C@H](CC(C)C)NC(=O)[C@H](CC(C)C)NC(=O)[C@H](CC(C)C)NC(=O)[C@H](CCCN=C(N)N)NC(=O)[C@H](CC(N)=O)NC(=O)[C@H](CC(N)=O)NC(=O)[C@H](C)NC(=O)[C@H](C)NC(=O)[C@H](CCC(N)=O)NC(=O)[C@H](CCC(N)=O)NC(=O)[C@H](CCCCN)NC(=O)[C@H](CCC(=O)O)NC(=O)[C@H](CCCCN)NC(=O)[C@H](CCC(=O)O)NC(=O)[C@H](CCC(N)=O)NC(=O)[C@H](CCCCN)NC(=O)[C@H](CCC(=O)O)NC(=O)[C@@H](NC(=O)[C@H](CCC(=O)O)NC(=O)[C@@H](NC(=O)[C@H](CCSC)NC(=O)[C@H](CCCCN)NC(=O)[C@H](CCCN=C(N)N)NC(=O)[C@H](CC(C)C)NC(=O)[C@H](CC(C)C)NC(=O)CNC(=O)[C@H](CC(C)C)NC(=O)[C@@H]1CCCN1C(=O)[C@H](CC(C)C)NC(=O)[C@H](CC(=O)O)NC(=O)[C@@H](NC(=O)[C@H](CO)NC(=O)[C@@H](NC(=O)[C@@H]1CCCN1C(=O)[C@@H]1CCCN1C(=O)CNC(=O)[C@@H]1CCC(=O)N1)[C@@H](C)CC)[C@@H](C)CC)[C@@H](C)CC)[C@@H](C)CC)[C@@H](C)O)C(=O)O ([pGlu]GPPISIDLPLGLLRKMIEIEKQEKEKQQAANNRLLLDTI-OH)
Emax [1]: 99% | Selectivity (Mus musculus): 14 | Emax [2]: 82%

CC[C@H](C)[C@H](NC(=O)[C@@H](NC(=O)[C@H](CC(=O)O)NC(=O)[C@H](CC(C)C)NC(=O)[C@H](CC(C)C)NC(=O)[C@H](CC(C)C)NC(=O)[C@H](CCCN=C(N)N)NC(=O)[C@H](CC(N)=O)NC(=O)[C@H](CC(N)=O)NC(=O)[C@H](C)NC(=O)[C@H](C)NC(=O)[C@H](CCC(N)=O)NC(=O)[C@H](CCC(N)=O)NC(=O)[C@H](CCCCN)NC(=O)[C@H](CCC(=O)O)NC(=O)[C@H](CCCCN)NC(=O)[C@H](CCC(=O)O)NC(=O)[C@H](CCC(N)=O)NC(=O)[C@H](CCCCN)NC(=O)[C@H](CCC(=O)O)NC(=O)[C@@H](NC(=O)[C@H](CCC(=O)O)NC(=O)[C@@H](NC(=O)[C@H](CCSC)NC(=O)[C@H](CCCCN)NC(=O)[C@H](CCCN=C(N)N)NC(=O)[C@H](CC(C)C)NC(=O)[C@H](CC(C)C)NC(=O)[C@H](CCC(=O)O)NC(=O)[C@H](CC(C)C)NC(=O)[C@@H]1CCCN1C(=O)[C@H](CC(C)C)NC(=O)[C@H](CC(=O)O)NC(=O)[C@@H](NC(=O)[C@H](CO)NC(=O)[C@@H](NC(=O)[C@@H]1CCCN1C(=O)[C@@H]1CCCN1C(=O)CNC(=O)[C@@H]1CCC(=O)N1)[C@@H](C)CC)[C@@H](C)CC)[C@@H](C)CC)[C@@H](C)CC)[C@@H](C)O)C(=O)O
Emax [1]: 99% | Selectivity (Mus musculus): 9 | Emax [2]: 95%

CC[C@H](C)[C@H](NC(=O)[C@@H](NC(=O)[C@H](CC(=O)O)NC(=O)[C@H](CC(C)C)NC(=O)[C@H](CC(C)C)NC(=O)[C@H](CC(C)C)NC(=O)[C@H](CCCN=C(N)N)NC(=O)[C@H](CC(N)=O)NC(=O)[C@H](CC(N)=O)NC(=O)[C@H](C)NC(=O)[C@H](C)NC(=O)[C@H](CCC(N)=O)NC(=O)[C@H](CCC(N)=O)NC(=O)[C@H](CCCCN)NC(=O)[C@H](CCC(=O)O)NC(=O)[C@H](CCCCN)NC(=O)[C@H](CCC(=O)O)NC(=O)[C@H](CCC(N)=O)NC(=O)[C@H](CCCCN)NC(=O)[C@H](CCC(=O)O)NC(=O)[C@@H](NC(=O)[C@H](CCC(=O)O)NC(=O)[C@@H](NC(=O)[C@H](CCSC)NC(=O)[C@H](CCCCN)NC(=O)[C@H](CCCN=C(N)N)NC(=O)[C@H](CC(C)C)NC(=O)[C@H](CC(C)C)NC(=O)[C@H](CC(C)C)NC(=O)[C@@H](NC(=O)[C@@H]1CCCN1C(=O)[C@H](CC(C)C)NC(=O)[C@H](CC(=O)O)NC(=O)[C@@H](NC(=O)[C@H](CO)NC(=O)[C@@H](NC(=O)[C@@H]1CCCN1C(=O)[C@@H]1CCCN1C(=O)CNC(=O)[C@@H]1CCC(=O)N1)[C@@H](C)CC)[C@@H](C)CC)[C@@H](C)O)[C@@H](C)CC)[C@@H](C)CC)[C@@H](C)O)C(=O)O
Emax [1]: 48% | Selectivity (Mus musculus): > 49 | Emax [2]: 100%

CC[C@H](C)[C@H](NC(=O)[C@@H](NC(=O)[C@H](CC(=O)O)NC(=O)[C@H](CC(C)C)NC(=O)[C@H](CC(C)C)NC(=O)[C@H](CC(C)C)NC(=O)[C@H](CCCN=C(N)N)NC(=O)[C@H](CC(N)=O)NC(=O)[C@H](CC(N)=O)NC(=O)[C@H](C)NC(=O)[C@H](C)NC(=O)[C@H](CCC(N)=O)NC(=O)[C@H](CCC(N)=O)NC(=O)[C@H](CCCCN)NC(=O)[C@H](CCC(=O)O)NC(=O)[C@H](CCCCN)NC(=O)[C@H](CCC(=O)O)NC(=O)[C@H](CCC(N)=O)NC(=O)[C@H](CCCCN)NC(=O)[C@H](CCC(=O)O)NC(=O)[C@@H](NC(=O)[C@H](CCC(=O)O)NC(=O)[C@@H](NC(=O)[C@H](CCSC)NC(=O)[C@H](CCCCN)NC(=O)[C@H](CCCN=C(N)N)NC(=O)[C@H](CC(C)C)NC(=O)[C@H](CC(C)C)NC(=O)[C@H](Cc1ccccc1)NC(=O)[C@H](Cc1ccc(O)cc1)NC(=O)[C@@H]1CCCN1C(=O)[C@H](CC(C)C)NC(=O)[C@H](CC(=O)O)NC(=O)[C@@H](NC(=O)[C@H](CO)NC(=O)[C@@H](NC(=O)[C@@H]1CCCN1C(=O)[C@@H]1CCCN1C(=O)CNC(=O)[C@@H]1CCC(=O)N1)[C@@H](C)CC)[C@@H](C)CC)[C@@H](C)CC)[C@@H](C)CC)[C@@H](C)O)C(=O)O
Emax [1]: 81% | Selectivity (Mus musculus): 16 | Emax [2]: 98%

CC[C@H](C)[C@H](NC(=O)[C@@H](NC(=O)[C@H](CC(=O)O)NC(=O)[C@H](CC(C)C)NC(=O)[C@H](CC(C)C)NC(=O)[C@H](CC(C)C)NC(=O)[C@H](CCCN=C(N)N)NC(=O)[C@H](CC(N)=O)NC(=O)[C@H](CC(N)=O)NC(=O)[C@H](C)NC(=O)[C@H](C)NC(=O)[C@H](CCC(N)=O)NC(=O)[C@H](CCC(N)=O)NC(=O)[C@H](CCCCN)NC(=O)[C@H](CCC(=O)O)NC(=O)[C@H](CCCCN)NC(=O)[C@H](CCC(=O)O)NC(=O)[C@H](CCC(N)=O)NC(=O)[C@H](CCCCN)NC(=O)[C@H](CCC(=O)O)NC(=O)[C@@H](NC(=O)[C@H](CCC(=O)O)NC(=O)[C@@H](NC(=O)[C@H](CCSC)NC(=O)[C@H](CCCCN)NC(=O)[C@H](CCCN=C(N)N)NC(=O)[C@H](CC(C)C)NC(=O)[C@H](CC(C)C)NC(=O)[C@H](CCC(N)=O)NC(=O)[C@H](CCC(N)=O)NC(=O)[C@@H]1CCCN1C(=O)[C@H](CC(C)C)NC(=O)[C@H](CC(=O)O)NC(=O)[C@@H](NC(=O)[C@H](CO)NC(=O)[C@@H](NC(=O)[C@@H]1CCCN1C(=O)[C@@H]1CCCN1C(=O)CNC(=O)[C@@H]1CCC(=O)N1)[C@@H](C)CC)[C@@H](C)CC)[C@@H](C)CC)[C@@H](C)CC)[C@@H](C)O)C(=O)O
Emax [1]: 50% | Selectivity (Mus musculus): 33 | Emax [2]: 100%

— ChEMBL document CHEMBL1139487, “Discovery of corticotropin releasing factor 2 receptor selective sauvagine analogues for treatment of skeletal muscle atrophy” (J Med Chem, 2005)
